Broadly, the CLint scaled is a measure of how fast metabolising enzymes remove a compound, apart from limits set by blood flow. One may read the AUC(0-t) as the area under the concentration-time curve up to a stated or last time point. Read a high AUC(0-t) as high exposure.

The source of these data is patent US10059689B2, “Substituted heteroaryl compounds and methods of use” (Sunshine Lake Pharma Co., Ltd., priority 2014, dated 2018).

The nature of data set [1]: Compound stability in rat liver microsomes. Format: in vitro ADME. Particulars: for half-life: pH 7.4, 37° C., NADPH, read-out: Rat T1/2; for CLint scaled: pH 7.4, in vivo CLint extrapolated. Here is the method: (§1) Human or rat liver microsomes incubations were conducted in duplicate in polypropylene tubes. The typical incubation mixtures consisted of human or rat liver microsomes (0.5 mg protein/mL), compounds of interest (5 μM) and NADPH (1.0 mM) in a total volume of 200 μL potassium phosphate buffer (PBS, 100 mM, pH 7.4). Compounds were dissolved in DMSO and diluted with PBS such that the final concentration of DMSO was 0.05%. The enzymatic reactions were commenced with the addition of protein after a 3-min preincubation and incubated in a water bath open to the air at 37° C. Reactions were terminated at various time points (0, 5, 10, 15, 30, 60 min) by adding equal volume of ice-cold acetonitrile. The samples were stored at −80° C. until LC/MS/MS assays.
(§2) The concentrations of compounds in the incubation mixtures of human or rat liver microsomes were determined by a LC/MS/MS method. The ranges of the linearity in the concentration range were determined for each tested compounds.
(§3) A parallel incubation was performed using denatured microsomes as the negative control, and reactions were terminated at various time points (0, 15, 60 min) after incubation at 37° C.
(§4) Verapamil (1 μM) was selected as the positive control, and reactions were terminated at various time points (0, 5, 10, 15, 30, 60 min) after incubation at 37° C. Both positive and negative control samples were included in each assay to ensure the integrity of the microsomal incubation system.
(§5) In addition, the stability date of compound in human and rat liver microsomes was also obtained through the following method. Human or rat liver microsomes incubations were conducted in duplicate in polypropylene tubes. The typical incubation mixtures consisted of human or rat liver microsomes (0.5 mg protein/mL), compounds of interest (1.5 μM) and EDTA (1.0 mM) in a total volume of 30 μL potassium phosphate buffer (PBS, 100 mM, pH 7.4). Compounds were dissolved in DMSO and diluted with PBS such that the final concentration of DMSO was 0.2%. The enzymatic reactions were commenced with the addition of 15 μL NADPH (final concentration: 2 mM) after a 10-min preincubation and incubated in a water bath open to the air at 37° C. Reactions were terminated at various time points (0, 15, 30, 60 min) by adding 135 μL acetonitrile (contain IS). The samples were centrifuged at 4000 rpm for 10 min to remove protein, the supernatant was stored at −80° C. until LC/MS/MS assays. Ketanserin (1 μM) was selected as the positive control, and reactions were terminated at various time points (0, 15, 30, 60 min) after incubation at 37° C. Both positive and negative control samples were included in each assay to ensure the integrity of the microsomal incubation system.
(§6) The concentrations of compounds in human or rat liver microsome incubations were plotted as a percentage of the relevant zero time point control for each reaction. The in vivo CLint were extrapolated (ref.: Naritomi, Y.; Terashita, S.; Kimura, S.; Suzuki, A.; Kagayama, A.; and Sugiyama, Y.; Prediction of human hepatic clearance from in vivo animal experiments and in vitro metabolic studies with liver microsomes from animals and humans. Drug Metab. Dispos., 2001, 29: 1316-1324).

The nature of data set [2]: Pharmacokinetics after intravenous and oral administration in rats. It counts as in vivo. Particulars: for clearance (CL) / AUC(0-t) / half-life / Vd: iv dosing, 1 mg/kg; for F: oral bioavailability; for AUC(0-t) / half-life / Vd: rat, plasma; for Vd: read-out: Vss. The procedure:
The LC/MS/MS system used in the analysis consists of an Agilent 1200 Series vacuum degasser, binary pump, well-plate autosampler, thermostatted column compartment, the Agilent G6430 Triple Quadrupole Mass Spectrometer with an electrosprayionization (ESI) source. Quantitative analysis was carried out using MRM mode. The parameters for MRM transitions are in the Table A.
An Agilent XDB-C18, 2.1×30 mm, 3.5 μM column was used for the analysis. 5 μL of the samples were injected. Analysis condition: The mobile phase was 0.1% formic acid in water (A) and 0.1% formic acid in methanol (B). The flow rate was 0.4 mL/min. And the gradient of Mobile phase was in the Table B.
Alternatively, an Agilent 6330 series LC/MS/MS spectrometer equipped with G1312A binary pumps, a G1367A autosampler and a G1314C UV detector were used in the analysis. An ESI source was used on the LC/MS/MS spectrometer. The analysis was done in positive ion mode as appropriate and the MRM transition for each analyte was optimized using standard solution. A Capcell MP-C18 100×4.6 mm I.D., […] column (Phenomenex, Torrance, Calif., USA) was used during the analysis. The mobile phase was 5 mM ammonia acetate, 0.1% MeOH in water (A): 5 mM ammonia acetate, 0.1% MeOH in acetonitrile (B) (70:30, v/v). The flow rate was 0.6 mL/min. Column was maintained at ambient temperature. 20 μL of the samples were injected.
The compounds disclosed herein are assessed in pharmacokinetic studies in mice, rats, dogs or monkeys. The compounds are administered as a water solution, 2% HPMC+1% TWEEN®80 in water solution, 5% DMSO+5% solutol in saline, 4% MC suspension or capsule. For the intravenous administration, the animals are generally given at 1 or 2 mg/kg dose. For the oral (p.o.) dosing, mice and rats are generally given 5 or 10 mg/kg dose, and dogs and monkeys are generally given 10 mg/kg dose. The blood samples (0.3 mL) are drawn at 0.25, 0.5, 1.0, 2.0, 3.0, 4.0, 6.0, 8.0, 12 and 24 h time points or 0.083, 0.25, 0.5, 1.0, 2.0, 4.0, 6.0, 8.0 and 24 h time points and centrifuged at 3,000 or 4000 rpm for 2 to 10 min. The plasma solutions are collected, and stored at −20° C. or −70° C. until analyzed by LC/MS/MS as described above.

A short description of data set [3]: Compound stability in human liver microsomes. It counts as in vitro ADME. Conditions: for half-life: pH 7.4, 37° C., NADPH, read-out: Human T1/2; for CLint scaled: pH 7.4, in vivo CLint extrapolated. The procedure: as §1, §2, §3, §4, §5, §6

The structures appear in SMILES notation.

Take `CCC1CN(c2ccc(C#N)nn2)CCC1Nc1ccnc(Nc2cc(C)n(C)n2)n1` (stereo not shown) [Ex. 22, 6-(4-((2-((1,5-dimethyl-1H-pyrazol-3-yl)amino)pyrimidin-4-yl)amino)-3-ethylpiperidin-1-yl)pyridazine-3-carbonitrile]: in data set [1], the half-life was found to be 45.5 min and the intrinsic clearance (CLint scaled) is 54.6 mL/min/kg. Further, in data set [2], the “clearance (CL)” value came to 33.2 mL/min/kg, the F was 62.7%, the AUC(0-t) was found to be 512 ng·h/mL and the half-life is 39.6 min. In addition, the Vd in data set [2] is 1.66 L/kg. Also, in data set [3], the half-life turned out to be 62.6 min and the CLint scaled is 27.8 mL/min/kg.
Regarding `CCC1CN(c2ccc(C#N)cn2)CCC1Nc1nc(Nc2ccc3c(C)n(C)nc3c2)ncc1Cl` (stereo not shown) [Ex. 23], in data set [1], the half-life is 20.4 min and the CLint scaled is 121 mL/min/kg. Moreover, in data set [2], the “clearance (CL)” value was found to be 6.83 mL/min/kg, the F worked out at 31.0%, the AUC(0-t) was 2430 ng·h/mL and the half-life was 81 min. The Vd in data set [2] was found to be 0.84 L/kg. In data set [3], the half-life came to 15.5 min and the CLint scaled is 112 mL/min/kg.
Take `CCC1CN(c2ccc(C#N)cn2)CCC1N(C)c1nc(Nc2cc(C)n(C)n2)ncc1Cl` (stereo not shown) [Ex. 18, 6-(4-((5-chloro-2-((1,5-dimethyl-1H-pyrazol-3-yl)amino)pyrimidin-4-yl) (methyl)amino)-3-ethylpiperidin-1-yl)nicotinonitrile]: in data set [1], the half-life was determined as 37.6 min and the CLint scaled is 66.1 mL/min/kg. For the same compound, in data set [2], the “clearance (CL)” value was found to be 23.7 mL/min/kg, the F was 66.8%, the AUC(0-t) stood at 663 ng·h/mL and the half-life was 109 min. In addition, the Vd in data set [2] was 2.88 L/kg. Besides, in data set [3], the half-life worked out at 22.9 min and the CLint scaled is 75.9 mL/min/kg.
With `CCC1CN(c2ccc(C#N)cn2)CCC1Nc1nc(Nc2cn(C)nc2C)ncc1Cl` (stereo not shown) [Ex. 16, 6-(4-((5-chloro-2-((1,3-dimethyl-1H-pyrazol-4-yl)amino)pyrimidin-4-yl)amino)-3-ethylpiperidin-1-yl)nicotinonitrile], in data set [1], the half-life was determined as 6.85 min and the CLint scaled was 363 mL/min/kg. In addition, in data set [2], the “clearance (CL)” value was 23.3 mL/min/kg, the F stood at 60.9%, the AUC(0-t) stood at 722 ng·h/mL and the half-life is 39.6 min. The Vd in data set [2] is 0.96 L/kg. In data set [3], the half-life was determined as 3.94 min and the CLint scaled was 442 mL/min/kg.
As to `CCC1CN(c2ccc(C#N)nn2)CCC1N(C)c1nc(Nc2ccc3c(C)n(C)nc3c2)ncc1Cl` (stereo not shown) [Ex. 19, 6-(4-((5-chloro-2-((2,3-dimethyl-2H-indazol-6-yl)amino)pyrimidin-4-yl)(methyl)amino)-3-ethylpiperidin-1-yl)pyridazine-3-carbonitrile], in data set [1], the half-life amounted to 6.55 min and the CLint scaled is 379 mL/min/kg. In addition, in data set [2], the “clearance (CL)” value came out at 43.8 mL/min/kg, the F came out at 23.4%, the AUC(0-t) worked out at 381 ng·h/mL and the half-life was 27 min. The Vd in data set [2] came to 1.4 L/kg. For the same compound, in data set [3], the half-life amounted to 10.5 min and the CLint scaled is 165 mL/min/kg.
On to `CCC1CN(c2ccc(C#N)cn2)CCC1Nc1nc(Nc2cc(C)n(C)n2)ncc1Cl` (stereo not shown) [Ex. 21, 6-(4-((5-chloro-2-((1,5-dimethyl-1H-pyrazol-3-yl)amino)pyrimidin-4-yl)amino)-3-ethylpiperidin-1-yl)nicotinonitrile], for which, in data set [1], the half-life was found to be 38.8 min and the CLint scaled was 64 mL/min/kg. Moreover, in data set [2], the “clearance (CL)” value was determined as 6.83 mL/min/kg, the F came to 106.1%, the AUC(0-t) came to 2320 ng·h/mL and the half-life was 93.6 min. Besides, the Vd in data set [2] was 0.81 L/kg. In addition, in data set [3], the half-life was found to be 17.9 min and the CLint scaled was 97.3 mL/min/kg.
Regarding `CCC1CN(c2ccc(C#N)cn2)CCC1N(C)c1nc(Nc2ccc3c(C)n(C)nc3c2)ncc1Cl` (stereo not shown) [Ex. 20, 6-(4-((5-chloro-2-((2,3-dimethyl-2H-indazol-6-yl)amino)pyrimidin-4-yl)(methyl)amino)-3-ethylpiperidin-1-yl)nicotinonitrile], in data set [1], the half-life was found to be 15 min and the intrinsic clearance (CLint scaled) is 166 mL/min/kg. Besides, in data set [2], the “clearance (CL)” value worked out at 18.3 mL/min/kg, the F is 30.4%, the AUC(0-t) was 881 ng·h/mL and the half-life was 90 min. Besides, the Vd in data set [2] was determined as 1.9 L/kg. Besides, in data set [3], the half-life stood at 26 min and the CLint scaled is 66.9 mL/min/kg.
For the compound `Cc1c2ccc(Nc3ncc(Cl)c(N(C)C4CCN(c5ccc(C#N)nn5)CC4)n3)cc2nn1C` [Ex. 24], the half-life in data set [1] was 7.12 min; in data set [3] it was 6.4 min. Further, the CLint scaled in data set [1] was 349 mL/min/kg; in data set [3], 272 mL/min/kg.
As to `CCC1CN(c2ccc(C#N)nn2)CCC1Nc1nc(Nc2ccc3c(C)n(C)nc3c2)ncc1Cl` (stereo not shown) [Ex. 17, 6-(4-((5-chloro-2-((2,3-dimethyl-2H-indazol-6-yl)amino)pyrimidin-4-yl)amino)-3-ethylpiperidin-1-yl)pyridazine-3-carbonitrile], in data set [1], the half-life came to 3.81 min and the CLint scaled was 652 mL/min/kg. Moreover, in data set [2], the “clearance (CL)” value was 18.3 mL/min/kg, the F was found to be 36.0%, the exposure AUC(0-t) turned out to be 911 ng·h/mL and the half-life was 40.2 min. Also, the Vd in data set [2] turned out to be 0.45 L/kg. In data set [3], the half-life worked out at 11.1 min and the CLint scaled is 156 mL/min/kg.
